In this experiment the target is T1, AsPC-1 HiBiT-KRASG12D (Homo sapiens, UniProt P01116, G12D).
T1 construct: insert the HiBiT tag onto the N-terminus of one or more of the endogenous KRAS alleles; endogenous in cells; host or cells: AsPC-1 (ATCC CRL-1682), CRISPR-Cas9 knock-in clone, one tagged allele
The experiment is described as follows: HiBiT degradation assay (G12D), AsPC-1 HiBiT-KRASG12D cells. It counts as cell-based. The note with it: 24 hours treatment; for Dmax: ASPC1, AsPC-1 HiBiT-KRASG12D cells, maximum degradation observed; for DC50: AsPC-1 HiBiT-KRASG12D cells, HiBiT luminescence. The method in brief:
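Steps: treat HiBiT-KRASG12D AsPC-1 cells with compound for 24 hours; add alamar blue to 1× and incubate 4 hours to assess viability; wash with PBS; add HiBiT lytic detection reagent, incubate 45 minutes at room temperature; read luminescence. Viability fluorescence is normalized to DMSO wells.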
(In general: HiBiT is a short tag that completes a luciferase, so light tracks the accessible tagged protein.)

From patent publication US20250206732A1, “COMPOUNDS AND METHODS FOR THE TARGETED DEGRADATION OF KRAS” (Arvinas Operations, Inc., priority 2022, published 2025) come the findings set out here.

Molecules are shown by their SMILES.

T1 sequence (P01116 1-188 isoform P01116-2 G12D): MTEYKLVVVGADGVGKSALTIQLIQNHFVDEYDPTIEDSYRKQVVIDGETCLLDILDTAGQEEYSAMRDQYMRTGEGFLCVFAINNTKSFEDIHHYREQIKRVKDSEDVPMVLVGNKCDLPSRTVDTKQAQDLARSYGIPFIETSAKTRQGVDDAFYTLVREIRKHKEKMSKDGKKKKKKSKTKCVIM

`CCc1cccc2cc(O)cc(-c3ncc4c(N5CC6CCC(C5)N6)nc(OCCN5CCC(CC6(F)CCN(CC(=O)N[C@H](C(=O)N7C[C@H](O)C[C@H]7C(=O)N[C@@H](C)c7ccc(-c8scnc8C)cc7)C(C)(C)C)CC6)CC5)nc4c3F)c12` [Compound 260, (2S,4R)-1-[(2S)-2-(2-{4-[(1-{2-[(4-{3,8-diazabicyclo[3.2.1]octan-3-yl}-7-(8-ethyl-3-hydroxynaphthalen-1-yl)-8-fluoropyrido[4,3-d]pyrimidin-2-yl)oxy]ethyl}piperidin-4-yl)methyl]-4-fluoropiperidin-1-yl}acetamido)-3,3-dimethylbutanoyl]-4-hydroxy-N-[(1S)-1-[4-(4-methyl-1,3-thiazol-5-yl)phenyl]ethyl]pyrrolidine-2-carboxamide]: the Dmax was in the range of 80 to 100% and the DC50 is less than 600 nM. `CCc1cccc2cc(O)cc(-c3ncc4c(N5CC6CCC(C5)N6)nc(OC[C@@H]5CC[C@@H](COC(=O)N6CCN(c7cc([C@H](C(=O)N8C[C@H](O)C[C@H]8C(=O)N[C@@H](C)c8ccc(-c9scnc9C)cc8)C(C)C)on7)C[C@@H]6C)N5C)nc4c3F)c12` [Compound 261, [(2S,5S)-5-{[(4-{3,8-diazabicyclo[3.2.1]octan-3-yl}-7-(8-ethyl-3-hydroxynaphthalen-1-yl)-8-fluoropyrido[4,3-d]pyrimidin-2-yl)oxy]methyl}-1-methylpyrrolidin-2-yl]methyl (2S)-4-{5-[(2R)-1-[(2S,4R)-4-hydroxy-2-{[(1S)-1-[4-(4-methyl-1,3-thiazol-5-yl)phenyl]ethyl]carbamoyl}pyrrolidin-1-yl]-3-methyl-1-oxobutan-2-yl]-1,2-oxazol-3-yl}-2-methylpiperazine-1-carboxylate] registered a Dmax of 80 to 100% and a DC50 of less than 600 nM. The matching figures for `CCc1cccc2cc(O)cc(-c3ncc4c(N5CC6CCC(C5)N6)nc(OCCN5CCC(F)(CN6CCN(c7cc([C@H](C(=O)N8C[C@H](O)C[C@H]8C(=O)N[C@@H](C)c8ccc(-c9scnc9C)cc8)C(C)C)on7)CC6)CC5)nc4c3F)c12` [Compound 262]: 80 to 100% and less than 600 nM. On the same counts, the results for `CCc1cccc2cc(O)cc(-c3ncc4c(N5CC6CCC(C5)N6)nc(OCCN5CCC(CC6(F)CN(CC(=O)N[C@H](C(=O)N7C[C@H](O)C[C@H]7C(=O)N[C@@H](C)c7ccc(-c8scnc8C)cc7)C(C)(C)C)C6)CC5)nc4c3F)c12` [Compound 263, (2S,4R)-1-[(2S)-2-(2-{3-[(1-{2-[(4-{3,8-diazabicyclo[3.2.1]octan-3-yl}-7-(8-ethyl-3-hydroxynaphthalen-1-yl)-8-fluoropyrido[4,3-d]pyrimidin-2-yl)oxy]ethyl}piperidin-4-yl)methyl]-3-fluoroazetidin-1-yl}acetamido)-3,3-dimethylbutanoyl]-4-hydroxy-N-[(1S)-1-[4-(4-methyl-1,3-thiazol-5-yl)phenyl]ethyl]pyrrolidine-2-carboxamide] are 80 to 100% and less than 600 nM.

`CCc1cccc2cc(O)cc(-c3ncc4c(N5CCCCCC5)nc(OC[C@@H]5CC[C@@H](COC(=O)N6CCN(c7cc([C@H](C(=O)N8C[C@H](O)C[C@H]8C(=O)N[C@@H](C)c8ccc(-c9scnc9C)cc8)C(C)C)on7)CC6)N5C)nc4c3F)c12` [Compound 272, [(2S,5S)-5-[[4-(azepan-1-yl)-7-(8-ethyl-3-hydroxy-1-naphthyl)-8-fluoro-pyrido[4,3-d]pyrimidin-2-yl]oxymethyl]-1-methyl-pyrrolidin-2-yl]methyl 4-[5-[(1R)-1-[(2S,4R)-4-hydroxy-2-[[(1S)-1-[4-(4-methylthiazol-5-yl)phenyl]ethyl]carbamoyl]pyrrolidine-1-carbonyl]-2-methyl-propyl]isoxazol-3-yl]piperazine-1-carboxylate] registered a Dmax of 60 to 80% and a DC50 of less than 600 nM.

`CCc1cccc2cc(O)cc(-c3ncc4c(N5CC6CCC(C5)N6)nc(OCCN5CCC(CC6CN(CC(=O)N[C@H](C(=O)N7C[C@H](O)C[C@H]7C(=O)N[C@@H](C)c7ccc(-c8scnc8C)cc7)C(C)(C)C)C6)CC5)nc4c3F)c12` [Compound 273, (2S,4R)-1-[(2S)-2-(2-{3-[(1-{2-[(4-{3,8-diazabicyclo[3.2.1]octan-3-yl}-7-(8-ethyl-3-hydroxynaphthalen-1-yl)-8-fluoropyrido[4,3-d]pyrimidin-2-yl)oxy]ethyl}piperidin-4-yl)methyl]azetidin-1-yl}acetamido)-3,3-dimethylbutanoyl]-4-hydroxy-N-[(1S)-1-[4-(4-methyl-1,3-thiazol-5-yl)phenyl]ethyl]pyrrolidine-2-carboxamide] gave a Dmax of 80 to 100% and a DC50 of less than 600 nM. `CCc1cccc2cc(O)cc(-c3ncc4c(N5CC6CCC(C5)N6)nc(OCCN5CCC(CC6CCN(CC(=O)N[C@H](C(=O)N7C[C@H](O)C[C@H]7C(=O)N[C@@H](C)c7ccc(-c8scnc8C)cc7)C(C)(C)C)CC6)CC5)nc4c3F)c12` [Compound 274, (2S,4R)-1-[(2S)-2-(2-{4-[(1-{2-[(4-{3,8-diazabicyclo[3.2.1]octan-3-yl}-7-(8-ethyl-3-hydroxynaphthalen-1-yl)-8-fluoropyrido[4,3-d]pyrimidin-2-yl)oxy]ethyl}piperidin-4-yl)methyl]piperidin-1-yl}acetamido)-3,3-dimethylbutanoyl]-4-hydroxy-N-[(1S)-1-[4-(4-methyl-1,3-thiazol-5-yl)phenyl]ethyl]pyrrolidine-2-carboxamide] registered a Dmax of 60 to 80% and a DC50 of less than 600 nM. Compound `CCc1cccc2cc(O)cc(-c3ncc4c(N5CC6CCC(C5)N6)nc(OCCN5CCC(CC6CN(c7cnc(C(=O)N[C@H](C(=O)N8C[C@H](O)C[C@H]8C(=O)N[C@@H](C)c8ccc(-c9scnc9C)cc8)C(C)(C)C)cn7)C6)CC5)nc4c3F)c12` [Compound 279] had a Dmax of 60 to 80% and a DC50 of less than 600 nM. The matching figures for `CCc1cccc2cc(O)cc(-c3ncc4c(N5CC6CCC(C5)N6)nc(OC[C@@H]5CC[C@@H](COC(=O)N6CCN(c7cc([C@@H](C(=O)N8C[C@H](O)C[C@H]8C(=O)N[C@@H](C)c8ccc(-c9scnc9C)cc8)C(C)C)on7)C[C@@H]6C)N5C)nc4c3F)c12` [Compound 280, [(2S,5S)-5-[[4-(3,8-diazabicyclo[3.2.1]octan-3-yl)-7-(8-ethyl-3-hydroxy-1-naphthyl)-8-fluoro-pyrido[4,3-d]pyrimidin-2-yl]oxymethyl]-1-methyl-pyrrolidin-2-yl]methyl (2S)-4-[5-[(1S)-1-[(2S,4R)-4-hydroxy-2-[[(1S)-1-[4-(4-methylthiazol-5-yl)phenyl]ethyl]carbamoyl]pyrrolidine-1-carbonyl]-2-methyl-propyl]isoxazol-3-yl]-2-methyl-piperazine-1-carboxylate]: 20 to 60% and 600 to 1000 nM. On the same counts, the results for `CCc1cccc2cc(O)cc(-c3ncc4c(N5CCCCCC5)nc(OC[C@]56CCCN5[C@H](COC(=O)N5CCC(Oc7cc([C@@H](C(=O)N8C[C@H](O)C[C@H]8C(=O)N[C@@H](C)c8ccc(-c9scnc9C)cc8)C(C)C)on7)CC5)CC6)nc4c3F)c12` [Compound 282, [(3S,8R)-8-[[4-(azepan-1-yl)-7-(8-ethyl-3-hydroxy-1-naphthyl)-8-fluoro-pyrido[4,3-d]pyrimidin-2-yl]oxymethyl]-1,2,3,5,6,7-hexahydropyrrolizin-3-yl]methyl 4-[5-[(1S)-1-[(2S,4R)-4-hydroxy-2-[[(1S)-1-[4-(4-methylthiazol-5-yl)phenyl]ethyl]carbamoyl]pyrrolidine-1-carbonyl]-2-methyl-propyl]isoxazol-3-yl]oxypiperidine-1-carboxylate] are less than 20% and 600 to 1000 nM. With `CCc1cccc2cc(O)cc(-c3ncc4c(N5CCCCCC5)nc(OC[C@]56CCCN5[C@H](COC(=O)N5CC7(C5)CN(c5cc([C@H](C(=O)N8C[C@H](O)C[C@H]8C(=O)N[C@@H](C)c8ccc(-c9scnc9C)cc8)C(C)C)on5)C7)CC6)nc4c3F)c12` [Compound 283, [(3S,8R)-8-[[4-(azepan-1-yl)-7-(8-ethyl-3-hydroxy-1-naphthyl)-8-fluoro-pyrido[4,3-d]pyrimidin-2-yl]oxymethyl]-1,2,3,5,6,7-hexahydropyrrolizin-3-yl]methyl 6-[5-[(1R)-1-[(2S,4R)-4-hydroxy-2-[[(1S)-1-[4-(4-methylthiazol-5-yl)phenyl]ethyl]carbamoyl]pyrrolidine-1-carbonyl]-2-methyl-propyl]isoxazol-3-yl]-2,6-diazaspiro[3.3]heptane-2-carboxylate], the Dmax fell in the range of 80 to 100% and the DC50 was less than 600 nM. Take `CCc1cccc2cc(O)cc(-c3ncc4c(N5CCCCCC5)nc(OC[C@]56CCCN5[C@H](COC(=O)N5CC7(C5)CN(c5cc([C@@H](C(=O)N8C[C@H](O)C[C@H]8C(=O)N[C@@H](C)c8ccc(-c9scnc9C)cc8)C(C)C)on5)C7)CC6)nc4c3F)c12` [Compound 284, [(3S,8R)-8-[[4-(azepan-1-yl)-7-(8-ethyl-3-hydroxy-1-naphthyl)-8-fluoro-pyrido[4,3-d]pyrimidin-2-yl]oxymethyl]-1,2,3,5,6,7-hexahydropyrrolizin-3-yl]methyl 6-[5-[(1S)-1-[(2S,4R)-4-hydroxy-2-[[(1S)-1-[4-(4-methylthiazol-5-yl)phenyl]ethyl]carbamoyl]pyrrolidine-1-carbonyl]-2-methyl-propyl]isoxazol-3-yl]-2,6-diazaspiro[3.3]heptane-2-carboxylate]: the DC50 was greater than 3000 nM. Consider `Cc1ncsc1-c1ccc([C@H](C)NC(=O)[C@@H]2C[C@@H](O)CN2C(=O)[C@@H](c2cc(OC3CN(C(=O)OC[C@@H]4CC[C@@H](COc5nc(N6CC7CCC(C6)N7)c6cnc(-c7cc(O)cc(Cl)c7C7CC7)c(F)c6n5)N4C)C3)no2)C(C)C)cc1` [Compound 285], for which the Dmax lay within 80 to 100% and the DC50 is less than 600 nM.

Broadly, the Dmax is the greatest extent of degradation seen. A high value points to deep degradation. In general, DC50 refers to the concentration giving 50% degradation. Lower therefore signals a more potent degrader.
